Structures can show the parent of a compound that is named as a salt.

The target of the experiment is hERG (Homo sapiens, UniProt Q12809). Nature of the experiment: cell-based. The following applies: (-LOG10(IC50), µM).
Sequence of hERG (Q12809 whole entry): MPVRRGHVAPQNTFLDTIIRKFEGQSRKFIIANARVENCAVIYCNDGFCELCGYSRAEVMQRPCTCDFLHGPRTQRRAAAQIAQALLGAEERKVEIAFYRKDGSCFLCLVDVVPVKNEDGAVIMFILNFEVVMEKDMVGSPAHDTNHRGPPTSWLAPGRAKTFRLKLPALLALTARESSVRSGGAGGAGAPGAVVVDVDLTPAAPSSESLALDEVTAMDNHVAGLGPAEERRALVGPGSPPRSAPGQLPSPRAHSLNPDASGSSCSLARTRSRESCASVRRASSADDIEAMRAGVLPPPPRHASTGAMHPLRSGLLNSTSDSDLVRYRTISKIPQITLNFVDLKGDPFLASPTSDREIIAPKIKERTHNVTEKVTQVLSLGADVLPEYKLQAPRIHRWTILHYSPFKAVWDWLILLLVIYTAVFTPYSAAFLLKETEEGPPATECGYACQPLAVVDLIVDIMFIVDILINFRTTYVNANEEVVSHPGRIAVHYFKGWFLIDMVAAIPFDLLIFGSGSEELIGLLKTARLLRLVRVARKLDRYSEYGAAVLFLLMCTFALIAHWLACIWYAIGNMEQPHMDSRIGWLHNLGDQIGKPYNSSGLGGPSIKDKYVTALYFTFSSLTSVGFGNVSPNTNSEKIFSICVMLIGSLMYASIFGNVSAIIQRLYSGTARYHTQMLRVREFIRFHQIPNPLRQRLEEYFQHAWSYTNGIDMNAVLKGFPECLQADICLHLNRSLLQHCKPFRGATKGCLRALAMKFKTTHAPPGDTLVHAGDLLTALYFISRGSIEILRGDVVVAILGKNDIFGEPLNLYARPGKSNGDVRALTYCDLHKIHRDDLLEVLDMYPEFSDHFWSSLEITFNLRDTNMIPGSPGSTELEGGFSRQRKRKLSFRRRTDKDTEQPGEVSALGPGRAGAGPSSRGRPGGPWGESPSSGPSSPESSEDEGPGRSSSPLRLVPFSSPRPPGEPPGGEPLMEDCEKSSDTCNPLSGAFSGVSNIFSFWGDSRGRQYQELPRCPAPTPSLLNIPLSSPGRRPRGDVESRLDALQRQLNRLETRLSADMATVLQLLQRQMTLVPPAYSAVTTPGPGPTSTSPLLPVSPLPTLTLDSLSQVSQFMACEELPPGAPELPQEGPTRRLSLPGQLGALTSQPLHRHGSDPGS
By IC50 is commonly meant the concentration at which inhibition is half-maximal. A higher IC50 goes with a need for much substance. Take `CCN1CCCC1CNC(=O)C(O)(c1ccccc1)c1ccccc1` (centres unmarked) [Epicainide]: half-maximal inhibition (IC50) required 19.7 µM. `CCOC(CN1CCN(CC(C)C(=O)c2ccccc2)CC1)c1ccccc1` (centres unmarked) [Eprazinone dihydrochloride]: the IC50 was 9.28 µM. `CN1C[C@H](C(=O)N[C@]2(C)O[C@@]3(O)[C@@H]4CCCN4C(=O)[C@H](Cc4ccccc4)N3C2=O)C=C2c3cccc4[nH]cc(c34)C[C@H]21` [Ergotamine D-tartrate] had an IC50 of 11.9 µM. The compound `C[C@]12CC[C@@H]3c4ccc(O)cc4CC[C@H]3[C@@H]1CC[C@@H]2OC(=O)CCC1CCCC1` [Estradiol cypionate] yielded an IC50 of 43.6 µM. The result for `CC(=O)O[C@@H]1CC2C3CCc4cc(OC(=O)c5ccccc5)ccc4C3CCC2(C)[C@H]1OC(C)=O` (some centres unmarked) [Estriol benzoate diacetate] reads 5.35 µM; that for `CCN(CC)CCOc1ccccc1C(=O)CCc1ccccc1` [Etafenone], 3.25 µM. With `C=C(C)CN(CC)c1c([N+](=O)[O-])cc(C(F)(F)F)cc1[N+](=O)[O-]` [Ethalfluralin] the figure was 36 µM. `CCOC(=O)C1=NOC(c2ccccc2)(c2ccccc2)C1` [Ethyl 5,5-diphenyl-2-isoxazoline-3-carboxylate]: the IC50 is 36.7 µM. `CCc1cc(Cl)c(OC)c(C(=O)NC[C@@H]2CCCN2CC)c1O` [Eticlopride hydrochloride] had an IC50 of 7.56 µM. As for `CCC(CN)=C(c1ccccc1)c1ccccc1` [Etifelmine hydrochloride], the IC50 was 20.5 µM.

The compound `O=C(OCCOCCO)c1ccccc1Nc1cccc(C(F)(F)F)c1` [Etofenamate] gave an IC50 of 13.4 µM. This IC50 lies about 1.5-fold lower than the previous one. `CCOc1cc(C(C)(C)C)ccc1C1COC(c2c(F)cccc2F)=N1` (centres unmarked) [Etoxazole] had an IC50 of 13.8 µM. The result for `Cc1[nH]cnc1C[C@H]1CCc2c(C)c3ccccc3n2C1=O` [Fabesetron hydrochloride] reads 7.01 µM; that for `CC1(c2ccc(Oc3ccccc3)cc2)OC(=O)N(Nc2ccccc2)C1=O` (centres unmarked) [Famoxadone], 22.9 µM; that for `CC(C)=CCCC(C)=CCCC(C)=CCO` [Farnesol], 47.1 µM. In the case of `OC(c1ccc(Cl)cc1)(c1cncnc1)c1ccccc1Cl` (centres unmarked) [Fenarimol], half-maximal inhibition (IC50) required 47.9 µM.

Compound `N#CC(CCc1ccc(Cl)cc1)(Cn1cncn1)c1ccccc1` (centres unmarked) [Fenbuconazole] had an IC50 of 18.1 µM. Against the preceding compound, the IC50 is about 2.6-fold lower. The result for `CCOC(=O)c1nc(C(Cl)(Cl)Cl)n(-c2ccc(Cl)cc2Cl)n1` [Fenchlorazole-ethyl] reads 49 µM; that for `CC(NCCC(c1ccccc1)c1ccccc1)c1ccccc1` (centres unmarked) [Fendiline hydrochloride], 1.69 µM; that for `O=C(CN1CCN(Cc2ccc3c(c2)OCO3)CC1)N1c2ccccc2Sc2ccccc21` [Fenoverine], 3.51 µM. The compound `CCOC(=O)[C@@H](C)Oc1ccc(Oc2nc3ccc(Cl)cc3o2)cc1` [Fenoxaprop-P-ethyl] had an IC50 of 26 µM. As to `CCOC(=O)C(C)Oc1ccc(Oc2nc3ccc(Cl)cc3o2)cc1` (centres unmarked) [Fenoxaprop-ethyl], the IC50 is 30.9 µM. The compound `CCOC(=O)NCCOc1ccc(Oc2ccccc2)cc1` [Fenoxycarb] had an IC50 of 45.3 µM. With `Clc1ccc(C(Cn2ccnc2)OCc2ccc(Sc3ccccc3)cc2)c(Cl)c1` (centres unmarked) [Fenticonazole] the figure was 12.5 µM; with `O=C(COc1ccc(Cl)cc1)N1CCN(Cc2ccc3c(c2)OCO3)CC1` [Fipexide hydrochloride], 16.1 µM; with `CCCCOC(=O)[C@@H](C)Oc1ccc(Oc2ccc(C(F)(F)F)cn2)cc1` [Fluazifop-P-butyl], 22 µM. `CCCCOC(=O)C(C)Oc1ccc(Oc2ccc(C(F)(F)F)cn2)cc1` (centres unmarked) [Fluazifop-butyl] gave an IC50 of 23.2 µM. The IC50 values of the last two compounds are within 1.5-fold of each other. With `O=C(NC(=O)c1c(F)cccc1F)Nc1ccc(Oc2ccc(C(F)(F)F)cc2Cl)cc1F` [Flufenoxuron] the figure was 37.4 µM. The result for `CCOC(=O)COc1cc(-n2ncc(C(F)(F)F)c(C)c2=O)c(F)cc1Cl` [Flufenpyr-ethyl] reads 30.9 µM; that for `CCCCCOC(=O)COc1cc(N2C(=O)C3=C(CCCC3)C2=O)c(F)cc1Cl` [Flumiclorac-pentyl], 16.4 µM. In turn, `O=C1OC2(c3ccc(O)cc3Oc3cc(O)ccc32)c2ccccc21` [Fluorescein] had an IC50 of 21.9 µM.

Compound `O=[N+]([O-])c1ccc(Oc2ccc(C(F)(F)F)cc2[N+](=O)[O-])cc1` [Fluorodifen] gave an IC50 of 7.76 µM. `CCOC(=O)COC(=O)c1cc(Oc2ccc(C(F)(F)F)cc2Cl)ccc1[N+](=O)[O-]` [Fluoroglycofen-ethyl]: the midpoint of inhibition, the IC50, lay at 13.8 µM. With `OCCN1CCN(CCCN2c3ccccc3Sc3ccc(C(F)(F)F)cc32)CC1` [Fluphenazine] the figure was 2.79 µM; with `CCOC(=O)Nc1ccc(NCc2ccc(F)cc2)nc1N` [Flupirtine maleate], 19 µM; with `CCN(CC)CCN1C(=O)CN=C(c2ccccc2F)c2cc(Cl)ccc21` [Flurazepam], 3.79 µM. Turning to `CCCCCCC(C)OC(=O)COc1nc(F)c(Cl)c(N)c1Cl` (centres unmarked) [Fluroxypyr-meptyl], inhibition was half-maximal at 38.9 µM (IC50). Compound `C[Si](Cn1cncn1)(c1ccc(F)cc1)c1ccc(F)cc1` [Flusilazole] showed an IC50 of 40.2 µM. As to `COC(=O)CSc1cc(N=c2sc(=O)n3n2CCCC3)c(F)cc1Cl` [Fluthiacet-methyl], the IC50 was 38.9 µM. `CC(C)Oc1cccc(NC(=O)c2ccccc2C(F)(F)F)c1` [Flutolanil]: the midpoint of inhibition, the IC50, lay at 50.9 µM.

The compound `O=C1c2ccccc2C(=O)N1SC(Cl)(Cl)Cl` [Folpet] gave an IC50 of 27.5 µM. On to `c1ccc(OCc2ccc(CCCN3CCOCC3)cc2)cc1` [Fomocaine], for which the IC50 was 10.7 µM. Compared with the last compound, the IC50 is about 2.6-fold lower. Regarding `CN1CCN(CCC(=O)N2c3ccccc3Sc3ccc(C(F)(F)F)cc32)CC1` [Ftormetazine], the IC50 was 4.96 µM.

On to `COc1ccccc1N1CCN(CCCCNC(=O)c2ccc(-c3ccc(C(C)=O)cc3)cc2)CC1` [GR 103691], for which the IC50 is 3.01 µM. The result for `CCN(C(=O)c1cc(C)cc(OC[C@H](C)Nc2ccncc2)c1)C(C)C` [GW473178E methyl benzene sulphonic acid] reads 15.9 µM; that for `COc1ccc(CCN(C)CCCC(C#N)(c2cc(OC)c(OC)c(OC)c2)C(C)C)cc1OC` (centres unmarked) [Gallopamil hydrochloride], 7.28 µM; that for `CN(C)c1ccc(C(=C2C=CC(=[N+](C)C)C=C2)c2ccc(N(C)C)cc2)cc1` [Gentian Violet], 2.79 µM. For the compound `CCN(CC)C(=O)c1cc(S(=O)(=O)Cc2ccccc2)c(N2CCC(c3ccccc3)CC2)cc1N(CC)CCN(C)C` [HMR1171 trifluoroacetate (1:1)], the IC50 is 2.72 µM.

The compound `Cc1c(Cl)c(=O)oc2cc(OP(=O)(OCCCl)OCCCl)ccc12` [Haloxon] had an IC50 of 22.1 µM. With `COC(=O)C(C)Oc1ccc(Oc2ncc(C(F)(F)F)cc2Cl)cc1` (centres unmarked) [Haloxyfop-methyl] the figure was 35.1 µM; with `ClC1=C(Cl)[C@]2(Cl)[C@@H]3[C@@H](Cl)[C@H]4O[C@H]4[C@@H]3C1(Cl)C2(Cl)Cl` [Heptachlor epoxide B], 38.9 µM. With `ClC1=C(Cl)C2(Cl)C3C(Cl)C=CC3C1(Cl)C2(Cl)Cl` (centres unmarked) [Heptachlor] the figure was 31 µM. `CCCCCCCCCCCCCCCC[N+](C)(C)C` [Hexadecyl trimethyl ammonium chloride] had an IC50 of 18.1 µM. `CCCCCCCCCCCCCCCC[N+](C)(C)C` [Hexadecyltrimethylammonium bromide]: the IC50 is 20.1 µM. The compound `CCCCC(CC)CN1CN(CC(CC)CCCC)CC(C)(N)C1` (centres unmarked) [Hexetidine] had an IC50 of 3.01 µM. The result for `CCCCCCOC(=O)c1ccccc1O` [Hexyl salicylate] reads 18.8 µM; that for `CN1CCCN(C(c2ccccc2)c2ccc(Cl)cc2)CC1` (centres unmarked) [Homochlorcyclizine], 1.83 µM.

For `CCN(CC)CCNc1ccc(CO)c2sc3ccccc3c(=O)c12` [Hycanthone], the IC50 was 10.7 µM. With `COc1ccc2c(c1OC)C(=O)O[C@@H]2[C@H]1c2cc3c(cc2CCN1C)OCO3` [Hydrastine] the figure was 20.8 µM; with `CC(C)Cc1ccc(C(C)C(=O)OCc2ccccn2)cc1` (centres unmarked) [Ibuprofen piconol], 16.3 µM. In turn, `CC(C(O)c1ccc(O)cc1)N1CCC(Cc2ccccc2)CC1` (centres unmarked) [Ifenprodil] gave an IC50 of 7 µM. The result for `COc1cc(C(C)=O)ccc1OCCCN1CCC(c2noc3cc(F)ccc23)CC1` [Iloperidone] reads 1.4 µM; that for `C=CCOC(Cn1ccnc1)c1ccc(Cl)cc1Cl` (centres unmarked) [Imazalil sulfate], 21.3 µM. With `C=CCOC(Cn1ccnc1)c1ccc(Cl)cc1Cl` (centres unmarked) [Imazalil] the figure was 29.8 µM; with `Cc1c(C)n(Cc2ccccc2)c2ccc(C(=O)OCCN(C)C)cc12` [Indocate], 14.2 µM; with `O=C(NC1CCN(CCc2c[nH]c3ccccc23)CC1)c1ccccc1` [Indoramin hydrochloride], 4.42 µM.

As for `COP(=S)(OC)Oc1cc(Cl)c(I)cc1Cl` [Iodenphos], the IC50 is 45.3 µM.

For `CC(C)C1CCC(Cc2ccc(Cl)cc2)C1(O)Cn1cncn1` (centres unmarked) [Ipconazole], it took 34.3 µM to reach half-maximal inhibition (IC50). `O=C1c2ccccc2S(=O)(=O)N1CCCCN1CCN(c2ncccn2)CC1` [Ipsapirone] had an IC50 of 16.9 µM. Consider `CC(C)CCOC(=O)C=Cc1ccccc1` [Isoamyl cinnamate], for which half-maximal inhibition (IC50) was put at 39.1 µM. Compared with the last compound, the IC50 is about 2.3-fold higher. With `CC(C)COC(=O)C=Cc1ccccc1` [Isobutyl 3-phenylacrylate] the figure was 50.9 µM. With `CC(C)COC(=O)COc1cc(Cl)c(Cl)cc1Cl` [Isobutyl (2,4,5-trichlorophenoxy)acetate] the figure was 41.1 µM. The compound `CC(=O)C1(C)CC2=C(CCCC2(C)C)CC1C` (centres unmarked) [Isocyclemone E] had an IC50 of 40 µM. With `Cc1nnc2n1-c1sc(CCc3ccc(CC(C)C)cc3)cc1C(c1ccccc1Cl)=NC2C` (centres unmarked) [Israpafant], half-maximal inhibition (IC50) was put at 19 µM. This IC50 lies about 2.1-fold lower than the previous one. With `CN1[C@@H]2CC[C@H]1C[C@@H](NC(=O)n1c(=O)[nH]c3ccccc31)C2` [Itasetron], the IC50 is 21.3 µM. With `O=C1C2(Cl)C3(Cl)C4(Cl)C(Cl)(Cl)C5(Cl)C3(Cl)C1(Cl)C5(Cl)C24Cl` (centres unmarked) [Kepone], the IC50 was 12.7 µM. Compared with the last compound, the IC50 is about 1.7-fold lower.

The compound `O=C(c1ccc(F)cc1)C1CCN(CCn2c(=O)[nH]c3ccccc3c2=O)CC1` [Ketanserin] gave an IC50 of 2.68 µM.

For the origin of these results see article PMC8869358, “High-Throughput Chemical Screening and Structure-Based Models to Predict hERG Inhibition” (Biology, 2022).
